In US20230028441A1, “NOVEL HETEROARYL-TRIAZOLE COMPOUNDS AS PESTICIDES” (Bayer Aktiengesellschaft, priority 2019, published 2023):

Legend:
Type in all cases: in vivo
[1] = system: adult engorged female ticks (Rhipicephalus microplus); assay: Rhipicephalus (Boophilus) microplus injection test; details: 168 h, egg deposition after 7 days, read-out: efficacy (infertile eggs); for pest or weed control at 0.004 mg: 4 μg/animal; for pest or weed control at 0.02 mg: 20 μg/animal
Protocol: Solvent: dimethyl sulfoxide
To produce a suitable preparation of active compound, 10 mg of active compound are dissolved in 0.5 mL solvent, and the concentrate is diluted with solvent to the desired concentration.
Five adult engorged female ticks (Rhipicephalus microplus) are injected with 1 μL compound solution into the abdomen. The ticks are transferred into replica plates and incubated in a climate chamber.
After 7 days egg deposition of fertile eggs is monitored. Eggs where fertility is not visible are stored in a climate chamber till hatching after about 42 days. An efficacy of 100% means all eggs are infertile; 0% means all eggs are fertile.

[2] = system: fall armyworm larvae (Spodoptera frugiperda); assay: Spodoptera frugiperda spray test (maize leaf sections); details: 168 h
Protocol: Solvent: 78.0 parts by weight acetone • 1.5 parts by weight dimethylformamide
(§1) Emulsifier: alkylarylpolyglycol ether
(§2) To produce a suitable preparation of active compound, 1 part by weight of active compound is mixed with the stated amount of solvents and is diluted with water, containing an emulsifier concentration of 1000 ppm, to the desired concentration. Further test concentrations are prepared by dilution with emulsifier containing water.
Maize (Zea mays) leaf sections are sprayed with a preparation of the active ingredient of the desired concentration. Once dry, the leaf sections are infested with fall armyworm larvae (Spodoptera frugiperda).
After 7 days mortality in % is determined. 100% means all caterpillars have been killed and 0% means none of the caterpillars have been killed.

[3] = system: larvae of the banded cucumber beetle (Diabrotica balteata); assay: Diabrotica balteata spray test; details: 168 h, after 7 days, wheat seeds, read-out: efficacy (seedlings grown up); for pest or weed control at 160 µg/disc, 500 g/ha: 500 g/ha (=160 μg/well); for pest or weed control at 32 µg/disc, 100 g/ha: 100 g/ha (=32 μg/well)
Protocol: (§3) Solvent: 78.0 parts by weight of acetone • • 1.5 parts by weight of dimethylformamide
as §1
as §2, with “solvent,” for “solvents”, “and the concentrate” for “and”
Soaked wheat seeds (Triticum aestivum) are placed in a multiple well plate filled with agar and some water and are incubated for 1 day to germinate (5 seeds per well). The germinated wheat seeds are sprayed with a test solution containing the desired concentration of the active ingredient. Afterwards each unit is infected with 10-20 larvae of the banded cucumber beetle (Diabrotica balteata).
After 7 days efficacy in % is determined. 100% means all the seedlings have grown up like in the untreated, uninfected control; 0% means none of the seedlings have grown.

[4] = system: larvae of the southern green stink bug (Nezara viridula); assay: Nezara viridula spray test; details: in Hordeum vulgare, 96 h
Protocol: as §3, §1
as §2, with “solvent,” for “solvents”, “and the concentrate” for “and”
Barley plants (Hordeum vulgare) infested with larvae of the southern green stink bug (Nezara viridula) are sprayed with a test solution containing the desired concentration of the active ingredient.
After 4 days mortality in % is determined. 100% means all the stink bugs have been killed; 0% means none of the stink bugs have been killed.

[5] = system: cattle tick larvae (Rhipicephalus microplus), strain Parkhurst, resistant against synthetic pyrethroids; assay: Rhipicephalus (Boophilus) microplus in-vitro contact test, larval cattle tick; details: 5 μg/cm^2 (=500 g/ha), after 48 hours, read-out: efficacy (larvae dead or moribund)
Protocol: 9 mg compound is solved in 1 mL acetone and diluted with acetone to the desired concentration. 250 μL of the test solution is filled in 25 mL glass test tubes and homogeneously distributed on the inner walls by rotation and tilting on a shaking device (2 h at 30 rpm). With a compound concentration of 900 ppm, an inner surface of 44.7 cm^2 and a homogeneous distribution, a dose of 5 μg/cm^2 is achieved.
After the solvent has evaporated, each test tube is filled with 20-50 cattle tick larvae (Rhipicephalus microplus), closed with a perforated lid and incubated in a horizontal position at 85% relative humidity and 27° C. in an incubator. After 48 hours efficacy is determined. The larvae are patted on the ground of the tubes and negative geotactic behaviour is recorded.
An efficacy of 100% means all larvae are dead or moribund; 0% means no larvae are dead or moribund.

SMILES | mortality at 500 g/ha [4] | pest or weed control at 32 µg/disc, 100 g/ha [3] | mortality at 100 g/ha [2] | other results
CC(NC(=O)c1cc(Cl)cc(C(F)(F)F)c1)c1nc(NC(=O)OC(C)(C)C)nn1-c1ncccn1 (racemic) [I-001, tert-butyl N-[5-[1-[[3-chloro-5-(trifluoromethyl)benzoyl]amino]ethyl]-1-pyrimidin-2-yl-1,2,4-triazol-3-yl]carbamate] |  |  |  | pest or weed control at 0.004 mg [1]: 100%; pest or weed control at 0.02 mg [1]: 100%; mortality at 500 g/ha [2]: 100%; pest or weed control at 160 µg/disc, 500 g/ha [3]: 100%
CC(NC(=O)c1cc(Cl)cc(S(C)(=O)=O)c1)c1nc(N(S(C)(=O)=O)S(C)(=O)=O)nn1-c1ccc(Cl)cn1 (racemic) [I-026, N-[1-[5-[bis(methylsulfonyl)amino]-2-(5-chloro-2-pyridyl)-1,2,4-triazol-3-yl]ethyl]-3-chloro-5-methylsulfonyl-benzamide] | 90% |  |  | pest or weed control at 0.004 mg [1]: 100%; pest or weed control at 0.02 mg [1]: 100%; pest or weed control at 160 µg/disc, 500 g/ha [3]: 100%
CC(NC(=O)c1cc(Br)cc(Br)c1)c1nc(NC(=O)OC(C)(C)C)nn1-c1ccc(C(=O)N2CCOCC2)cn1 (racemic) [I-106, tert-butyl N-[5-[1-[(3,5-dibromobenzoyl)amino]ethyl]-1-[5-(morpholine-4-carbonyl)-2-pyridyl]-1,2,4-triazol-3-yl]carbamate] |  |  |  | pest or weed control at 5 µg/cm2 [5]: 80%
CC(NC(=O)c1cc(Cl)cc(S(C)(=O)=O)c1)c1nc(NC(=O)OC(C)(C)C)nn1-c1ccc(Cl)cn1 (centres unmarked) [I-002] |  |  |  | pest or weed control at 0.004 mg [1]: 100%; pest or weed control at 0.02 mg [1]: 100%
CC(NC(=O)c1cc(Cl)cc(C(F)(F)F)c1)c1nc(-c2ccc(Cl)nc2)nn1-c1ncccn1 (centres unmarked) [I-043] |  |  |  | pest or weed control at 0.004 mg [1]: 80%
CC(NC(=O)c1cc(Cl)cc(S(C)(=O)=O)c1)c1nc(-c2ncccn2)nn1-c1ncccn1 (centres unmarked) [I-052] |  |  |  | pest or weed control at 0.004 mg [1]: 100%; pest or weed control at 0.02 mg [1]: 100%
CC(NC(=O)c1cc(Cl)cc(S(C)(=O)=O)c1)c1nc(SCC(F)(F)F)nn1-c1ccc(Cl)cn1 (centres unmarked) [I-065] |  |  |  | pest or weed control at 0.004 mg [1]: 100%; pest or weed control at 0.02 mg [1]: 100%
CC(NC(=O)c1cc(Cl)cc(C(F)(F)F)c1)c1nc(SCC(F)(F)F)nn1-c1ccc(Cl)cn1 (centres unmarked) [I-067] |  |  |  | pest or weed control at 0.02 mg [1]: 100%
CC(NC(=O)c1cc(Cl)cc(C(F)(F)F)c1)c1nc([S+]([O-])CC(F)(F)F)nn1-c1ccc(Cl)cn1 (centres unmarked) [I-068] |  |  |  | pest or weed control at 0.004 mg [1]: 80%; pest or weed control at 0.02 mg [1]: 100%
CC(NC(=O)c1cc(Cl)cc(S(C)(=O)=O)c1)c1nc(Cc2ccccc2)nn1-c1ncccn1 (centres unmarked) [I-084] |  |  |  | mortality at 100 g/ha [4]: 90%
CC(NC(=O)c1cc(C(F)(F)F)cc(C(F)(F)F)c1)c1nc(Cc2c(F)cccc2F)nn1-c1ncccn1 (centres unmarked) [I-086] |  | 100% |  | 
CC(NC(=O)c1cc(C(F)(F)F)cc(C(F)(F)F)c1)c1nc(NC(=O)OC(C)(C)C)nn1-c1ccc(C#N)cn1 (centres unmarked) [I-096] |  |  |  | pest or weed control at 0.004 mg [1]: 100%
CC(NC(=O)c1cc(Br)cc(Br)c1)c1nc(NC(=O)OC(C)(C)C)nn1-c1ccc(C#N)cn1 (centres unmarked) [I-098] |  |  |  | pest or weed control at 0.004 mg [1]: 100%
CC(NC(=O)c1cc(Br)cc(C(F)(F)F)c1)c1nc(NC(=O)OC(C)(C)C)nn1-c1ccc(C#N)cn1 (centres unmarked) [I-102] |  |  |  | pest or weed control at 0.004 mg [1]: 100%
CON(C)c1nc([C@H](C)NC(=O)c2cc(Br)cc(Br)c2)n(-c2ncccn2)n1 [I-150] |  | 100% | 100% | 
CC(NC(=O)c1cc(Cl)cc(C(C)(C)C#N)c1)c1nc(N(C)C)nn1-c1ccc(C#N)cn1 (centres unmarked) [I-156] | 100% | 100% | 100% | 
CC(NC(=O)c1cc(Cl)cc(S(C)(=O)=O)c1)c1nc(N(C)C)nn1-c1ccc(C#N)cn1 (centres unmarked) [I-157] | 90% |  |  | 
CC(NC(=O)c1cc(C(F)(F)F)cc(C(F)(F)F)c1)c1nc(N(C)C)nn1-c1ccc(C#N)cn1 (centres unmarked) [I-162] | 100% | 100% | 100% | 
CC(NC(=O)c1cc(OC(F)(F)F)cc(C2CC2)c1)c1nc(N(C)C)nn1-c1ccc(C#N)cn1 (centres unmarked) [I-164] | 100% | 100% | 100% | 

SMILES | mortality at 500 g/ha [4] | pest or weed control at 32 µg/disc, 100 g/ha [3] | mortality at 100 g/ha [2] | other results
CC(NC(=O)c1cc(OC(F)(F)F)cc(C2CC2)c1)c1nc(N(C)C)nn1-c1ncc(Cl)cn1 (centres unmarked) [I-166] | 100% | 100% | 100% | 
CSc1nc(C(C)NC(=O)c2cc(OC(F)(F)F)cc(S(C)(=O)=O)c2)n(-c2ncc(C#N)s2)n1 (centres unmarked) [I-167, N-{1-[1-(5-cyano-1,3-thiazol-2-yl)-3-(methylsulfanyl)-1H-1,2,4-triazol-5-yl]ethyl}-3-(methylsulfonyl)-5-(trifluoromethoxy)benzamide] | 100% | 100% | 100% | 
CC(NC(=O)c1cc(Cl)cc(S(C)(=O)=O)c1)c1nc(N(C)C)nn1-c1ncc(Cl)cn1 (centres unmarked) [I-171] | 100% |  | 100% | 
C[C@H](NC(=O)c1cc(Br)cc(C(F)(F)F)c1)c1nc(N)nn1-c1ccc(C#N)cn1 [I-172] |  | 100% | 100% | 
C[C@H](NC(=O)c1cc(C(F)(F)F)cc(C(F)(F)F)c1)c1nc(N2CCCC2)nn1-c1ncccn1 [I-190] | 100% | 100% | 100% | 
CC(NC(=O)c1cc(OC(F)(F)F)cc(S(=O)(=O)C(C)C)c1)c1nc(N(C)C)nn1-c1ncc(Cl)cn1 (centres unmarked) [I-191] | 90% | 100% |  | 
CC(NC(=O)c1cc(OC(F)(F)F)cc(S(=O)(=O)C2CC2)c1)c1nc(N(C)C)nn1-c1ncc(Cl)cn1 (centres unmarked) [I-193] | 100% | 100% | 100% | 
CCS(=O)(=O)c1cc(OC(F)(F)F)cc(C(=O)NC(C)c2nc(N(C)C)nn2-c2ncc(Cl)cn2)c1 (centres unmarked) [I-194] | 100% | 100% | 100% | 
CC(NC(=O)c1cc(OC(F)(F)F)cc(C2CC2)c1)c1nc(N2CCCCC2)nn1-c1ncccn1 (centres unmarked) [I-196] | 90% |  |  | 
C[C@H](NC(=O)c1cc(OC(F)(F)F)cc(C2CC2)c1)c1nc(N2CCOCC2)nn1-c1ncc(C#N)s1 [I-197] |  | 100% |  | 
CC(NC(=O)c1cc(Cl)cc(S(C)(=O)=O)c1)c1nc(N2CCCCC2)nn1-c1ncccn1 (centres unmarked) [I-198] |  | 80% |  | 
C[C@H](NC(=O)c1cc(C(F)(F)F)cc(C(F)(F)F)c1)c1nc(N2CCOCC2)nn1-c1ncc(C#N)s1 [I-199] |  | 100% |  | 
C[C@H](NC(=O)c1cc(OC(F)(F)F)cc(C2CC2)c1)c1nc(N2CCCC2)nn1-c1ncccn1 [I-203] | 100% | 100% | 100% | 
C[C@H](NC(=O)c1cc(Cl)cc(C(C)(C)C#N)c1)c1nc(N2CCOCC2)nn1-c1ccc(C#N)cn1 [I-204] | 100% |  | 100% | 
CNc1nc([C@H](C)NC(=O)c2cc(OC(F)(F)F)cc(C3CC3)c2)n(-c2ncc(C#N)s2)n1 [I-206] |  |  | 100% | 
CNc1nc([C@H](C)NC(=O)c2cc(C(F)(F)F)cc(C(F)(F)F)c2)n(-c2ncc(C#N)s2)n1 [I-208] |  |  | 100% | 
CNc1nc([C@H](C)NC(=O)c2cc(Br)cc(OC(F)(F)F)c2)n(-c2ncc(C#N)s2)n1 [I-209] |  |  | 100% | 
CNc1nc([C@H](C)NC(=O)c2cc(Br)cc(Br)c2)n(-c2ncc(C#N)s2)n1 [I-210] |  |  | 100% | 
CNc1nc([C@H](C)NC(=O)c2cc(OC(F)(F)F)cc(S(C)(=O)=O)c2)n(-c2ncc(C#N)s2)n1 [I-212] |  |  | 100% | 
